From patent US11530226B2, “Azepane inhibitors of menin-MLL interaction” (Janssen Pharmaceutica NV, priority 2016, dated 2022)
Values joined by “and” are separate entries in the source; they are usually repeats but may differ in a detail not shown here. Equal entries are not always repeated. Structures can show the parent of a compound that is named as a salt. Where two headings read alike, the source gives them in different places.

Experiments:
[1] = biological target: T1, terbium chelate-labeled menin / FITC-MBM1 peptide (Menin/MLL) (Homo sapiens, UniProt O00255, T541A); experiment: Menin/MLL homogenous time-resolved fluorescence (HTRF) assay; type: binding; settings: read-out: (2) Menin HTRF assay (IC50 (nM))
T1 construct: Menin (a. a. l-610-6×his tag) was labeled with terbium cryptate as follows
T1 sequence (O00255 with tags, fused parts or gaps T541A): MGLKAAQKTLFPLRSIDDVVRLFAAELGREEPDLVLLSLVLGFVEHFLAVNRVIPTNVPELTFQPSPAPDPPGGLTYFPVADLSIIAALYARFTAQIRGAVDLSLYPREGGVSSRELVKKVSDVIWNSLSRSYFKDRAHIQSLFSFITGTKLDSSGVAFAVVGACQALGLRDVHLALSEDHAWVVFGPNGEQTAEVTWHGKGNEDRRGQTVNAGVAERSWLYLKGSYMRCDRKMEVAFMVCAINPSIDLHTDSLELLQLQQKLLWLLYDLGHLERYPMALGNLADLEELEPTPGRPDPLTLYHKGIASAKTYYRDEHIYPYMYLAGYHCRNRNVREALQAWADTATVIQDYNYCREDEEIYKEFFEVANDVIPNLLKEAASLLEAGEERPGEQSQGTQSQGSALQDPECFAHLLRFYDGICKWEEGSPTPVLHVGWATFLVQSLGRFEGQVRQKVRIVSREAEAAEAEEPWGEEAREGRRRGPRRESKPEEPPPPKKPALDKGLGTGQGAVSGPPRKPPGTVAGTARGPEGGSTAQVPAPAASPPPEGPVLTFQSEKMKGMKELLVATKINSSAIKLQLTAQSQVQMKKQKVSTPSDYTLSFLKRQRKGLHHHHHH
Protocol: 2) Menin/MLL Homogenous Time-Resolved Fluorescence (HTRF) Assay
To an untreated, white 384-well microtiter plate was added 40 nL 200× test compound in DMSO and 4 μL 2× terbium chelate-labeled menin (vide infra for preparation) in assay buffer (40 mM Tris .HCl, pH 7.5, 50 mM NaCl, 1 mM DTT and 0.05% Pluronic F-127). After incubation of test compound and terbium chelate-labeled menin for 5 min at ambient temperature, 4 μL 2×FITC-MBM1 peptide (FITC-P-alanine-SARWRFPARPGT-NH2) in assay buffer was added, the microtiter plate centrifuged at 1000 rpm for 1 min and the assay mixtures incubated for 15 min at ambient temperature. The relative amount of menin ⋅FITC-MBM1 complex present in an assay mixture is determined by measuring the homogenous time-resolved fluorescence (HTRF) of the terbium/FITC donor/acceptor fluorphore pair using a BMG Pherastar plate reader (ex. 337 nm/terbium cm. 490 nm/FITC cm. 520 nm) at ambient temperature. The degree of fluorescence resonance energy transfer (the HTRF value) is expressed as the ratio of the fluorescence emission intensities of the FITC and terbium fluorophores (P^m 520 nm//F^em 490 nm). The final concentrations of reagents in the binding assay are 100 pM terbium chelate-labeled menin, 75 nM FITC-MBM1 peptide and 0.5%) DMSO in assay buffer. Dose-response titrations of test compounds are conducted using an 11 point, three-fold serial dilution scheme, starting typically at 25 μM.
Compound potencies were determined by first calculating % inhibition at each compound concentration according to equation 1: % inhibition=((HC−LC)−(HTRF^compound−LC))/(HC−LC))*100 (Eqn 1)
Where LC and HC are the HTRF values of the assay in the presence or absence of a saturating concentration of a compound that competes with FITC-MBM1 for binding to menin, and HTRF^compound is the measured HTRF value in the presence of the test compound. HC and LC HTRF values represent an average of at least 16 replicates per plate.
Where Bottom and Top are the lower and upper asymptotes of the dose-response curve, respectively, IC50 is the concentration of compound that yields 50% inhibition of signal and h is the Hill coefficient.
Preparation of Terbium cryptate labeling of Menin: Menin (a. a. l-610-6×his tag) was labeled with terbium cryptate as follows. 2 mg of Menin was buffer exchanged into 1× phosphate buffered saline. 16 uM Menin was incubated with 4-fold molar excess NHS-terbium cryptate (Cisbio Bioassays, Bedford, Mass.) for 2 hours at room temperature. The labeled protein was purified away from free label by running the reaction over a Superdex 200 Increase 10/300 GL column at 0.75 ml/min. Peak fractions were collected, aliquoted and frozen at −80° C.

MV-4-1 1 cells (MLL-AF4) = experiment: Proliferation assay (spheroid-like growth, 8 d, live-cell imaging), MV-4-11; type: cell-based, human; settings: MV-4-11 cells, absolute IC50 from AUC of confluence, read-out: (3) Spheroid assay MV-4-11 (IC50 (μM))
Protocol: (§1) The anti-proliferative effect of menin/MLL protein/protein interaction inhibitor test compounds was assessed in human leukemia cell lines. The cell lines MV-4-1 1 and MOLM14 harbor MEL translocations and express the MEL fusion proteins MLL-AF4 and MLL-AF9, respectively, as well as the wildtype protein from the second allele. […] K562 was used as a control cell line containing two MLL wildtype alleles in order to exclude compounds that display general cytotoxic effects.
(§2) MV-4-1 1 and MOLM14 were cultured in RPMI-1640 (Sigma Aldrich) supplemented with 10% fetal bovine serum (HyClone), 2 mM L-glutamine (Sigma Aldrich) and 50 μg/ml gentamycin (Gibco). K562 were propagated in RPMI-1640 (Sigma Aldrich) supplemented with 20% fetal bovine serum (HyClone), 2 mM L-glutamine (Sigma Aldrich) and 50 μg/ml gentamycin (Gibco).
(§3) In order to assess the anti-proliferative effects, 1,500 MV-4-1 1, 300 MOLM14 or 750 K562 cells were seeded in 200 μl media per well in 96-well round bottom, ultra-low attachment plates (Costar, catalogue number 7007). Cell seeding numbers were chosen based on growth curves to ensure linear growth throughout the experiment. Test compounds were added at different concentrations and the DMSO content was normalized to 0.3%>. Cells were incubated for 8d at 37° C. and 5% C02. Spheroid like growth was monitored in real-time by live-cell imaging (IncuCyteZOOM, Essenbio, 4× objective) acquiring one image every four hours for 8d. Confluence (%) as a measure of spheroid size was determined using an integrated analysis tool.
(§4) In order to determine the cumulative effect of the test compounds over time, the area under the curve (AUC) in a plot of confluence against time was calculated. Confluence at the beginning of the experiment (t=0) was used as baseline for the AUC calculation.
(§5) Absolute IC50 values were calculated according to the following procedure: % Control=(AUC sample/AUC control)*100 AUC control=mean AUC of control values(cells without compound/DMSO as vehicle control)
(§6) A non-linear curve fit was applied using the least squares (ordinary) fit method to the plot of % control versus compound concentration. Based on this, the absolute IC50 value (half maximal inhibitory concentration of the test compound causing an anti-proliferative effect of 50% relative to the vehicle control) was calculated.

MOLM14 cells (MLL-AF9) = experiment: Proliferation assay (spheroid-like growth, 8 d, live-cell imaging), MOLM14; type: cell-based, human; settings: Homo sapiens, MOLM-14, 192 h, absolute IC50 from AUC of confluence, read-out: (3) Spheroid assay MOLM14 (IC50 (μM))
Protocol: as §1, §2, §3, §4, §5, §6

Structure (SMILES) | IC50 [1] [nM] | melting point | other results
OCc1ccccc1CNC1CCCN(c2ncnc3sc(CC(F)(F)F)cc23)CC1 (stereo not drawn) [Compound 21] | 97 |  | IC50 (MV-4-1 1 cells (MLL-AF4); Homo sapiens, MV4-11, 192 h): 1 µM; IC50 (MOLM14 cells (MLL-AF9)): 6.1 µM
Cc1ccc(CN[C@@H]2CCCN(c3ncnc4sc(CC(F)(F)F)cc34)CC2)c(C)c1 (single isomer, unassigned) (as salt: hydrochloride) [Compound 9A] |  | 156 °C | 
C[C@H](N[C@@H]1CCCN(c2ncnc3sc(CC(F)(F)F)cc23)CC1)c1cnn(C)c1 (single isomer, unassigned) (as salt: HCl) [Compound 54B] |  | 160 °C | 
O=C(NC1CCCN(c2ncnc3sc(CC(F)(F)F)cc23)CC1)C1CC2(CC2)CN1 (stereo not drawn) (as salt: hydrochloride) [Compound 10B] |  | 205 °C | 
CC(C)[C@H](N[C@H]1CCCN(c2ncnc3sc(CC(F)(F)F)cc23)CC1)C1CNC1 (single isomer, unassigned) (as salt: hydrochloride) [Compound 32] |  | 190 °C | 
CN(C)CCCCN(Cc1cnn(C)c1)C1CCCN(c2ncnc3sc(CC(F)(F)F)cc23)CC1 (stereo not drawn) (as salt: hydrochloride) [Compound 61] |  | 110 °C | 
CC1CN(c2ncnc3sc(CC(F)(F)F)cc23)CCCC1NCc1ccccc1 (stereo not drawn) [Compound 67B] | 348 | 180 °C | IC50 (MV-4-1 1 cells (MLL-AF4)): 3.7 µM
FC(F)(F)Cc1cc2c(N3CCCC(Oc4ccccc4)CC3)ncnc2s1 (stereo not drawn) [Compound 15] | 606 | 110 °C | 
FC(F)(F)Cc1cc2c(N3CCCC(N4Cc5ccccc5C4)CC3)ncnc2s1 (stereo not drawn) [Compound 6] | 60 | 111 °C and 111.41 °C | IC50 (MV-4-1 1 cells (MLL-AF4); Homo sapiens, MV4-11, 192 h): 2.2 µM
Fc1ccc(CN[C@H]2CCCN(c3ncnc4sc(CC(F)(F)F)cc34)CC2)c(F)c1 (single isomer, unassigned) (as salt: hydrochloride) [Compound 7B] |  | 180 °C | 
FC(F)(F)Cc1cc2c(N3CCC[C@@H](NCc4ccccc4)CC3)ncnc2s1 (as salt: HCl) [Compound 3, (R)N-benzyl-1-(6-(2,2,2-trifluoroethyl)thieno[2,3-d]pyrimidin-4-yl)azepan-4-amine] |  | 130 °C | 
C[C@@H](N[C@H]1CCCN(c2ncnc3sc(CC(F)(F)F)cc23)CC1)c1cnn(C)c1 (single isomer, unassigned) (as salt: HCl) [Compound 54D] |  | 160 °C | 
CC(C)[C@@H](N[C@H]1CCCN(c2ncnc3sc(CC(F)(F)F)cc23)CC1)C1CNC1 (single isomer, unassigned) (as salt: hydrochloride) [Compound 36] |  | 208 °C | 
Cc1ccc(CNC2CCCN(c3ncnc4sc(CC(F)(F)F)cc34)CC2)cc1 (stereo not drawn) [Compound 16] | 21 |  | IC50 (MV-4-1 1 cells (MLL-AF4); Homo sapiens, MV4-11, 192 h): 0.8 µM; IC50 (MOLM14 cells (MLL-AF9)): 4.9 µM
COc1ccccc1CNC1CCCN(c2ncnc3sc(CC(F)(F)F)cc23)CC1 (stereo not drawn) [Compound 22] | 78 |  | IC50 (MV-4-1 1 cells (MLL-AF4); Homo sapiens, MV4-11, 192 h): 2.5 µM; IC50 (MOLM14 cells (MLL-AF9)): 9.9 µM
Cc1ccc(CN[C@H]2CCCN(c3ncnc4sc(CC(F)(F)F)cc34)CC2)c(C)c1 (single isomer, unassigned) (as salt: hydrochloride) [Compound 9B] |  | 160 °C | 
CC1CCN(c2ncnc3sc(CC(F)(F)F)cc23)CCC1NCc1ccccc1 (stereo not drawn) [Compound 68C] | 282 |  | IC50 (MV-4-1 1 cells (MLL-AF4); Homo sapiens, MV4-11, 192 h): 4.4 µM; IC50 (MOLM14 cells (MLL-AF9)): 7.7 µM
O=C(NC1CCCN(c2ncnc3sc(CC(F)(F)F)cc23)CC1)C1CC2(CC2)CN1 (stereo not drawn) [Compound 10B] | 1320 |  | IC50 (MV-4-1 1 cells (MLL-AF4); Homo sapiens, MV4-11, 192 h): 5 µM; IC50 (MOLM14 cells (MLL-AF9)): 14.2 µM
CN(C)CCN(Cc1ccccc1)[C@@H]1CCCN(c2ncnc3sc(CC(F)(F)F)cc23)CC1 (single isomer, unassigned) (as salt: hydrochloride) [Compound 57A] |  | 150 °C | 
C[C@@H](N[C@@H]1CCCN(c2ncnc3sc(CC(F)(F)F)cc23)CC1)c1cnn(C)c1 (single isomer, unassigned) (as salt: HCl) [Compound 54A] |  | 160 °C | 
CN(C)CCCNC1CCCN(c2ncnc3sc(CC(F)(F)F)cc23)CC1 (stereo not drawn) (as salt: hydrochloride) [Compound 62] |  | 130 °C | 
FC(F)(F)Cc1cc2c(N3CCCC(NCC4CCOCC4)CC3)ncnc2s1 (stereo not drawn) (as salt: hydrochloride) [Compound 55] |  | 110 °C | 
CC(C)[C@@H](N[C@@H]1CCCN(c2ncnc3sc(CC(F)(F)F)cc23)CC1)C1CNC1 (single isomer, unassigned) (as salt: hydrochloride) [Compound 35] |  | 193 °C | 
CC1CN(c2ncnc3sc(CC(F)(F)F)cc23)CCCC1NCc1ccccc1 (stereo not drawn) [Compound 67A] | 396 | 164 °C | IC50 (MV-4-1 1 cells (MLL-AF4); Homo sapiens, MV4-11, 192 h): 3.6 µM
Fc1ccc(CN[C@@H]2CCCN(c3ncnc4sc(CC(F)(F)F)cc34)CC2)c(F)c1 (single isomer, unassigned) (as salt: hydrochloride) [Compound 7A] |  | 176 °C | 
C[C@@H]1CCN(c2ncnc3sc(CC(F)(F)F)cc23)CC[C@@H]1NCc1ccccc1 (single isomer, unassigned) (as salt: hydrochloride) [Compound 68B] |  | 150 °C | 
CC(C)NC1CCCN(c2ncnc3sc(CC(F)(F)F)cc23)CC1 (stereo not drawn) [Compound 12] | 5790 | 94 °C | 
Cc1cccc(CNC2CCCN(c3ncnc4sc(CC(F)(F)F)cc34)CC2)c1 (stereo not drawn) [Compound 23] | 150 |  | IC50 (MV-4-1 1 cells (MLL-AF4); Homo sapiens, MV4-11, 192 h): 3.1 µM; IC50 (MOLM14 cells (MLL-AF9)): 9.4 µM
